We go through one compound from patent US20200016118A1, “HDAC INHIBITOR IN COMBINATION WITH VEGF/VEGFR INTERACTION FOR CANCER THERAPY BASED ON PLATELET COUNT” (4SC AG, priority 2017, published 2020).

The test relates to advanced HCC. The test can be described thus: Phase I/II trial (Phase II part) of resminostat in combination with sorafenib versus sorafenib alone, first-line, overall survival by baseline platelet count. It counts as in vivo, human. As to the method:
A Phase I/II trial investigating resminostat in the indication of hepatocellular cancer (HCC) was conducted. The study was an open-label, multi-center Phase I/II study in patients with advanced HCC previously untreated with systemic chemotherapy (first-line therapy) to determine the MTD and to evaluate safety and efficacy of resminostat in combination with sorafenib. The study was conducted in Japan and Korea. The main eligibility criteria included a performance status of ECOG 0-1, adequate hepatic, renal, cardiac and bone marrow function and a life expectancy of more than 12 weeks.
In the Phase II part, a total of 170 patients were enrolled. Patients were randomly allocated to either the combination group (86 patients) or the monotherapy group (84 patients) at the RD determined from phase I. Randomization was performed with the minimization method using the following 2 factors as stratification factors: study site; and vascular invasion (presence or absence). The trial is registered at www.clinicaltrials.jp (Identifier: JapicCTI-132124) and www.clinicalTrials.gov (NCT02400788). Overall Survival (OS) were evaluated by the Kaplan-Meier method. A point estimate of the hazard ratio was calculated for each subgroup categorized by baseline platelet level as well as the 95% confidence interval of the estimate.
Treatment regimen: Mono group: A cycle was defined as 14 days. Sorafenib (800 mg) was given daily. Combination group: A cycle was defined as 14 days. Sorafenib (800 mg) was given daily. Resminostat (400 mg) was given daily on Days 1 to 5 and suspended on Days 6 to 14.
Blood was collected into a blood collection tubes precharged with EDTA-2K and then immediately inverted 4-5 times to mix. The mixed sample was stored refrigerated for further analysis.
Platelet count analysis was conducted with the Sheath Flow DC Detection method (Sysmex, Kobe, Japan). A method is described in detail in WALTERS J., GARRITY P. (2000): Performance Evaluation of the Sysmex XE-2100 Hematology Analyzer; Laboratory Hematology 6: 83-92. […]

On to `CNC(=O)c1cc(Oc2ccc(NC(=O)Nc3ccc(Cl)c(C(F)(F)F)c3)cc2)ccn1` [sorafenib, 4-[4-[[4-chloro-3-(trifluoromethyl)phenyl]carbamoylamino]phenoxy]-N-methyl-pyridine-2-carboxamide], for which the “overall survival (OS), in words” value (patients with platelet count of about 150000 platelets/μL or above compared to below about 150000 (FIG. 1)) is “shorter overall survival”. Also, the “median overall survival (mOS)” value amounted to 5.1 months (patients with platelet count ≥151×10^3/μL (median) at baseline) and 17.5 months (patients with platelet level below median (<151×10^3/μL)).
